Values after ≈ are worked out from the molar mass of the structure shown. “Also recorded” adds a separate entry of the source. A value given as a limit tells only on which side of the number the result lay.

Data set [1] has as its system panel of over twenty (20) human cancer cell lines. Kind of data set: In vitro studies on a panel of over twenty human cancer cell lines. It counts as cell-based.
Data set [2] is described as follows: Preclinical toxicology, oral single daily doses for five consecutive days, beagle dogs. The conditions noted are these: beagle, dog, in vivo, po.
A further data set relates to beagle dogs. The data set is described as above. To be noted: oral vs i.v.
The test system of another data set is advanced ovarian cancer. Kind of data set: Phase II study in advanced ovarian cancer after failed prior treatments. It counts as in vivo, human.
In data set [3] the test system is mucinous cell lines (JHOM2B, OMC3, and COV644). Kind of data set: SRB assay, joint statements for the mucinous cell lines incl. effect of BNP7787 on BNP1350-induced cytotoxicity. In kind it is cell-based, human. To be noted: each of JHOM2B, OMC3, COV644. The method, then:
In vitro studies were conducted in human mucinous ovarian cancer cell lines including JHOM2B, OMC3, and COV644. In one series of experiments, the dose response curves for BNP1350 (also known as Karenitecin), SN-38 (Irinotecan), and Topotecan were obtained and IC50 values were determined. In a second series of experiments, the effect of BNP7787 (2,2′-dithio-bis-ethane sulfonate; Tavocept) on BNP1350-induced cytotoxicity at selected BNP1350 concentrations was examined.
The JHOM2B and OMC3 cell lines were purchased from Riken Cell Bank (Japan). The COV644 cell line was purchased from SigmaAldrich. Cells were maintained as monolayered cultures in T-75 flasks and then seeded to microtiter plate wells for experiments. Population doubling-times for these three cell lines were long (i.e., exceeding 40 hours, and for some of the cell lines approaching 96 hours); therefore, the Applicants conducted initial pilot experiments and determined optimal seeding density to obtain A570 values in untreated controls that would fall within the linear range of the SRB assay after seven (7) total days of cell growth. […]
The cells were manipulated in a Microzone laminar flow hood traditionally used for maintaining aseptic environments around automated instrumentation such as microplate robots, and the like. […] Cells were counted using a ViCell counter (Beckman-Coulter). An automated plate washer/stacker (ELx405/BioStak from BioTek Instruments) and a microplate reader (SpectraMax Plus from Molecular Devices) were used for conducting the SRB assay and determining A570 values for wells in the plates and the percentage of control values. Prior to SRB assays, cell viability was monitored by evaluation of microtiter plate wells. […]
The sulforhodamine B (SRB) cytotoxicity assay was used to assess cell survival. […] Plates were agitated (gently) for 5 minutes and the absorbance values of the SRB dye-protein adduct at 570 nanometers (A570) were determined using an automated microtiter plate reader (SpectraMax Plus, Molecular Devices). […]

The nature of data set [4]: Limit of solubility in cell culture medium. In kind it is physicochemical. The conditions noted are these: aqueous buffer. The method, then: The 1050 values exceeded the solubility in medium for each compound—the limit of solubility in cell culture medium for the compounds were as follows: 2 micromolar for BNP1350 and SN38, and 20 micromolar for Topotecan. Cells were treated for periods of 2.5 hours or 6 hours and, in each case, the […] values were not reached. Longer treatments were not performed.

Data set [5] is described as follows: Phase I clinical studies of intravenous Karenitecin. It counts as in vivo, human. The protocol: Results from three Phase I studies indicate that Karenitecin can be safely administered to subjects at the dose level of 1.0 mg/m^2/day i.v. over a one hour period of time for 5 consecutive days in a 3-week treatment cycle. […] Any gastrointestinal toxicity is generally ≦grade 2 and is not dose-limiting.
Intravenous administration of Karenitecin has been evaluated in three Phase I clinical studies in subjects with the following cancer types: (i) advanced solid tumors (adult subjects) (see, e.g., Schilsky, R. L., Hausheer, F. H., et al., Phase I trial of karenitecin administered intravenously daily for five consecutive days in subjects with advanced solid tumors using accelerated dose titration [abstract]. ASCO Abstract 758 (2000)); (ii) refractory or recurrent solid tumors (pediatric subjects); and (iii) recurrent malignant glioma (adult subjects). Intravenous administration of Karenitecin has also been evaluated in four Phase 2 clinical studies in adult subjects with the following cancer types: (i) primary malignant glioma; (ii) third-line treatment of persistent or recurrent epithelial ovarian or primary peritoneal carcinoma; (iii) malignant melanoma (see, e.g., Hausheer, F. H., et al., Phase II trial of Karenitecin (BNP1350) in malignant melanoma: clinical and translational study [abstract]. ASCO Abstract 7554 (2004); and (iv) relapsed or refractory non-small cell lung cancer (see, e.g., Miller, A. A., et al., MR for the Cancer and Leukemia Group B. Phase II trial of karenitecin in subjects with relapsed or refractory non-small cell lung cancer (CALGB 30004) Lung Cancer 48:399-407 (2005)).

Turning to `CC[C@@]1(O)C(=O)OCc2c1cc1n(c2=O)Cc2c-1nc1ccccc1c2CC[Si](C)(C)C` [Karenitecin, (4S)-4-ethyl-4-hydroxy-11-[2-(trimethylsilyl)ethyl]-1H-pyrano[3′:4′:6,7]indolizino[1,2-b]quinoline-3,14(4H,12H)-dione], the “Antitumor potency compared with Topotecan or SN-38” value in data set [1] is on record as “significantly more potent”. Besides, the MTD at 5 days in data set [2] was determined as 0.075 mg/kg. For the same molecule, the “MTD of oral relative to intravenous (i.v.) Karenitecin” value with beagle dogs is “approximately 2 times”. For the same molecule, the “Time to Progression (TTP) compared with historical results reported with Topotecan” value with advanced ovarian cancer is “prolonged”. The “Potency compared with SN38 and topotecan (dose response curves)” value in data set [3] is reported as “much more potent”. The molecule further returned a solubility in data set [4] of 2 µM (≈ 0.897 µg/mL). In data set [5] (i.v. 1.0 mg/m^2/day x5, 3-week cycle, not dose-limiting), this molecule showed a Gastrointestinal toxicity grade of at most 2 grade. Moreover, the Dose-limiting toxicity entry in data set [5] (i.v., Phase I clinical studies) was “non-cumulative, reversible myelosuppression; also recorded: reversible and non-cumulative neutropenia and thrombocytopenia”. In addition, the “Hypersensitivity reactions reported by subjects” value in data set [5] (to date) is “no hypersensitivity reactions”.

The values are drawn from patent US20160038519A1, “ADMINISTRATION OF KARENITECIN FOR THE TREATMENT OF ADVANCED OVARIAN CANCER, INCLUDING CHEMOTHERAPY-RESISTANT AND/OR THE MUCINOUS ADENOCARCINOMA SUB-TYPES” (BioNumerik Pharmaceuticals, Inc., priority 2014, published 2016).
